Laboratory results: patent US6936585B2, “Corticotropin releasing factor 2 receptor agonists” (priority 2002, dated 2005)
Ends that are not written are not given here. Peptide text beside a SMILES is read from it.

Experiments:
CRF2R = molecular target: T1, CRF2R (Homo sapiens, UniProt Q13324); test: CRF2R agonist activation (EC50 / Emax), called comparative CRF binding; type: cell-based; settings: for Emax: read-out: CRF2R Emax; for EC50: read-out: CRF2R EC50
T1 sequence (Q13324 1-411): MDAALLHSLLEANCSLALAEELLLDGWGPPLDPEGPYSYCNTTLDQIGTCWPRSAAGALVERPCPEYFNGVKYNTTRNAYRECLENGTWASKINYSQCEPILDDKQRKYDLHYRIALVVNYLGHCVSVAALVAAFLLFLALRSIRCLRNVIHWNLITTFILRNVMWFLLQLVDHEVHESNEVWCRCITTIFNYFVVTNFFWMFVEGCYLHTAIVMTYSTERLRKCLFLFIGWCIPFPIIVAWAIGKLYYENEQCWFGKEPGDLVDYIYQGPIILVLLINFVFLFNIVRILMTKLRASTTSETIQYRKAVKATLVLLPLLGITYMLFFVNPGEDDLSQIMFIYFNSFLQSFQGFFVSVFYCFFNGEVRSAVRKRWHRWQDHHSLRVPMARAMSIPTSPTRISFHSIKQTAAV
Procedure, shortened: (§1)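 Agonism at each human CRF receptor subtype is inferred from increased cAMP relative to vehicle, using cells expressing that subtype and either lysate cAMP measurement or a cAMP response element reporter.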

CRF1R = molecular target: T2, CRF1R (Homo sapiens, UniProt P34998); test: CRF1R agonist activation (EC50 / Emax), called comparative CRF binding; type: cell-based; settings: for Emax: read-out: CRF1R Emax; for EC50: read-out: CRF1R EC50
T2 sequence (P34998 24-415): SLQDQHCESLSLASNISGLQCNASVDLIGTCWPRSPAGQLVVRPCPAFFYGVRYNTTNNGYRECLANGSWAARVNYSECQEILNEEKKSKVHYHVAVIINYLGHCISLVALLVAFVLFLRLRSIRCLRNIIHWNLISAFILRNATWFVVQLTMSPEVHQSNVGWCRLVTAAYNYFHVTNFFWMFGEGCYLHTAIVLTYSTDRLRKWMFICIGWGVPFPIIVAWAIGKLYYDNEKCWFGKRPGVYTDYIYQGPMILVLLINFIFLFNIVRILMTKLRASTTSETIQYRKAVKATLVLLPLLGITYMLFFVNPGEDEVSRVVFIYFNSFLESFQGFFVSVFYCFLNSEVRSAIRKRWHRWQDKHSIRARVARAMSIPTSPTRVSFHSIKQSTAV
Procedure, shortened: as §1

Row | Compound | Emax (CRF2R) | Emax (CRF1R) | EC50 (CRF2R) | EC50 (CRF1R)
1 | CC[C@H](C)[C@H](NC(=O)[C@H](CCCNC(=N)N)NC(=O)[C@H](C)NC(=O)[C@H](CC(N)=O)NC(=O)[C@H](CCC(N)=O)NC(=O)[C@H](CCC(=O)O)NC(=O)[C@H](C)NC(=O)[C@H](CCCNC(=N)N)NC(=O)[C@H](CCC(=O)O)NC(=O)[C@H](CCCNC(=N)N)NC(=O)[C@H](CCC(N)=O)NC(=O)[C@H](CO)NC(=O)[C@H](CCC(N)=O)NC(=O)[C@@H](NC(=O)[C@H](CCCCN)NC(=O)[C@H](CCC(=O)O)NC(=O)[C@H](CC(C)C)NC(=O)[C@H](CCC(=O)O)NC(=O)[C@H](CC(C)C)NC(=O)[C@H](CC(C)C)NC(=O)[C@@H](NC(=O)[C@H](CCCNC(=N)N)NC(=O)[C@H](CC(C)C)NC(=O)[C@H](CC(C)C)NC(=O)[C@H](Cc1ccccc1)NC(=O)[C@H](CC(C)C)NC(=O)[C@@H]1CCCN1C(=O)[C@H](CC(C)C)NC(=O)[C@H](CC(=O)O)NC(=O)[C@@H](NC(=O)[C@H](CO)NC(=O)[C@H](CC(C)C)NC(=O)[C@H](CO)NC(=O)[C@@H]1CCCN1)[C@@H](C)CC)[C@@H](C)O)[C@@H](C)O)C(=O)N[C@@H](Cc1ccccc1)C(=O)N[C@@H](C)C(=O)N[C@@H](CCCNC(=N)N)C(=O)N[C@H](C(N)=O)C(C)C [compound 331] (H-PSLSIDLPLFLLRTLLELEKTQSQRERAEQNARIFARV-NH2; N-terminus assumed) | 100% | 78.7% |  | 
2 | SQEPPISLDLPIGLLREVLEMTKADQLAQQAHSNRKLLDIA-NH2 [compound 93] | 6.4% | 5% |  | 
3 | CC[C@H](C)[C@H](NC(=O)[C@H](CCCNC(=N)N)NC(=O)[C@H](C)NC(=O)[C@H](CC(N)=O)NC(=O)[C@H](CCC(N)=O)NC(=O)[C@H](CCC(=O)O)NC(=O)[C@H](C)NC(=O)[C@H](CCCNC(=N)N)NC(=O)[C@H](CCC(=O)O)NC(=O)[C@H](CCCNC(=N)N)NC(=O)[C@H](CCC(N)=O)NC(=O)[C@H](CO)NC(=O)[C@H](CCC(N)=O)NC(=O)[C@@H](NC(=O)[C@H](CCCNC(=N)N)NC(=O)[C@H](C)NC(=O)[C@H](CC(C)C)NC(=O)[C@H](CCC(=O)O)NC(=O)[C@H](CC(C)C)NC(=O)[C@H](CC(C)C)NC(=O)[C@@H](NC(=O)[C@H](CCCNC(=N)N)NC(=O)[C@H](CC(C)C)NC(=O)[C@H](CC(C)C)NC(=O)[C@H](Cc1ccccc1)NC(=O)[C@H](CC(C)C)NC(=O)[C@@H]1CCCN1C(=O)[C@H](CC(C)C)NC(=O)[C@H](CC(=O)O)NC(=O)[C@@H](NC(=O)[C@H](CO)NC(=O)[C@H](CC(C)C)NC(=O)[C@H](CO)NC(=O)[C@@H]1CCCN1C(=O)[C@H](CC(N)=O)NC(=O)[C@@H](N)CC(=O)O)[C@@H](C)CC)[C@@H](C)O)[C@@H](C)O)C(=O)N[C@@H](Cc1ccccc1)C(=O)N[C@@H](C)C(=O)N[C@@H](CCCNC(=N)N)C(=O)N[C@H](C(N)=O)C(C)C [compound 329] (H-DNPSLSIDLPLFLLRTLLELARTQSQRERAEQNARIFARV-NH2; N-terminus assumed) | 98.3% | 98.4% |  | 
4 | CC[C@H](C)[C@H](N)C(=O)N[C@H](C(=O)N[C@@H](CC(C)C)C(=O)N[C@@H](CO)C(=O)N[C@@H](CC(C)C)C(=O)N[C@@H](CCC(=O)O)C(=O)N[C@H](C(=O)N1CCC[C@H]1C(=O)N[C@H](C(=O)NCC(=O)N[C@@H](CC(C)C)C(=O)N[C@@H](CC(C)C)C(=O)N[C@@H](CCC(N)=O)C(=O)N[C@H](C(=O)N[C@@H](CC(C)C)C(=O)N[C@@H](CC(C)C)C(=O)N[C@@H](CCC(=O)O)C(=O)N[C@@H](CCC(N)=O)C(=O)N[C@@H](C)C(=O)N[C@@H](CCCNC(=N)N)C(=O)N[C@@H](C)C(=O)N[C@@H](CCCNC(=N)N)C(=O)N[C@@H](C)C(=O)N[C@@H](C)C(=O)N[C@@H](CCCNC(=N)N)C(=O)N[C@@H](CCC(=O)O)C(=O)N[C@@H](CCC(N)=O)C(=O)N[C@@H](C)C(=O)N[C@H](C(=O)N[C@H](C(=O)N[C@@H](CC(N)=O)C(=O)N[C@@H](C)C(=O)N[C@@H](CCCNC(=N)N)C(=O)N[C@H](C(=O)N[C@@H](CC(C)C)C(=O)N[C@@H](C)C(=O)N[C@@H](CCCNC(=N)N)C(=O)N[C@H](C(N)=O)C(C)C)[C@@H](C)CC)[C@@H](C)O)[C@@H](C)O)[C@@H](C)CC)[C@@H](C)CC)C(C)C)C(C)C [compound 120] (H-IVLSLEVPIGLLQILLEQARARAAREQATTNARILARV-NH2; N-terminus assumed) | 100% | 7% | 69.9 nM | ≥ 100 nM
5 | SQEIVLSLDVPIGLLREVLEMTKADQLAQQAHSNRKLLDIA-NH2 [compound 7] |  |  | ≥ 100 nM | ≥ 100 nM
6 | CC[C@H](C)[C@H](NC(=O)[C@H](C)NC(=O)[C@H](CC(N)=O)NC(=O)[C@H](CCC(N)=O)NC(=O)[C@H](CCC(=O)O)NC(=O)[C@H](C)NC(=O)[C@H](CCCNC(=N)N)NC(=O)[C@H](CCC(=O)O)NC(=O)[C@H](CCCNC(=N)N)NC(=O)[C@H](CCC(N)=O)NC(=O)[C@H](CO)NC(=O)[C@H](CCC(N)=O)NC(=O)[C@@H](NC(=O)[C@H](CCCCN)NC(=O)[C@H](CCC(=O)O)NC(=O)[C@H](CC(C)C)NC(=O)[C@H](CCC(=O)O)NC(=O)[C@H](CC(C)C)NC(=O)[C@H](CC(C)C)NC(=O)[C@@H](NC(=O)[C@H](CCCNC(=N)N)NC(=O)[C@H](CC(C)C)NC(=O)[C@H](CC(C)C)NC(=O)[C@@H](NC(=O)[C@H](CC(C)C)NC(=O)[C@@H]1CCCN1C(=O)[C@H](CC(C)C)NC(=O)[C@H](CC(=O)O)NC(=O)[C@@H](NC(=O)[C@H](CO)NC(=O)[C@H](CC(C)C)NC(=O)[C@H](CO)NC(=O)[C@@H]1CCCN1C(=O)[C@H](CC(N)=O)NC(=O)[C@@H](N)CC(=O)O)[C@@H](C)CC)[C@@H](C)CC)[C@@H](C)O)[C@@H](C)O)C(=O)N[C@H](C(=O)N[C@@H](Cc1ccccc1)C(=O)N[C@@H](C)C(=O)N[C@@H](CO)C(=O)N[C@H](C(N)=O)C(C)C)[C@@H](C)CC [compound 345] (H-DNPSLSIDLPLILLRTLLELEKTQSQRERAEQNAIIFASV-NH2; N-terminus assumed) | 100% | 18.8% | 39.7 nM | ≥ 1000 nM
7 | CC[C@H](C)[C@H](N)C(=O)N[C@H](C(=O)N[C@@H](CC(C)C)C(=O)N[C@@H](CO)C(=O)N[C@@H](CC(C)C)C(=O)N[C@@H](CC(=O)O)C(=O)N[C@H](C(=O)N1CCC[C@H]1C(=O)N[C@H](C(=O)NCC(=O)N[C@@H](CC(C)C)C(=O)N[C@@H](CC(C)C)C(=O)N[C@@H](CCC(N)=O)C(=O)N[C@H](C(=O)N[C@@H](CC(C)C)C(=O)N[C@@H](CC(C)C)C(=O)N[C@@H](CCC(=O)O)C(=O)N[C@@H](CCC(N)=O)C(=O)N[C@@H](CCCNC(=N)N)C(=O)N[C@@H](C)C(=O)N[C@@H](C)C(=O)N[C@@H](CCCNC(=N)N)C(=O)N[C@@H](CCC(=O)O)C(=O)N[C@@H](CCC(N)=O)C(=O)N[C@@H](C)C(=O)N[C@H](C(=O)N[C@H](C(=O)N[C@@H](CC(N)=O)C(=O)N[C@@H](C)C(=O)N[C@@H](CCCNC(=N)N)C(=O)N[C@H](C(=O)N[C@@H](CC(C)C)C(=O)N[C@@H](C)C(=O)N[C@@H](CCCNC(=N)N)C(=O)N[C@H](C(N)=O)C(C)C)[C@@H](C)CC)[C@@H](C)O)[C@@H](C)O)[C@@H](C)CC)[C@@H](C)CC)C(C)C)C(C)C [compound 136] (H-IVLSLDVPIGLLQILLEQRAAREQATTNARILARV-NH2; N-terminus assumed) | 68% | 8% | 23.4 nM | > 100 nM
